The text below walks through data of ChEMBL document CHEMBL2321772 (J Med Chem, 2013).

One series can be described thus: physchem. To be noted: octanol/water.
A short description of series [1]: Oral bioavailability in rat. The series is classed as ADME, organism-based. To be noted: in vivo.
The nature of the next series: in vitro. To be noted: human, hepatocytes.
A short description of series [2]: Oral bioavailability in mouse. The settings on record: in vivo. In kind it is ADME, organism-based.
Series [3] is described as follows: Clearance in rat. The series is classed as ADME, organism-based. The settings on record: in vivo.
A short description of series [4]: Volume of distribution at steady state in dog. The series is classed as ADME, organism-based, Canis lupus familiaris. To be noted: in vivo, read-out: Vdss.
Series [5] is described as follows: Intrinsic clearance in mouse hepatocytes assessed per million of cells. The series is classed as ADME, cell-based, Hepatocyte. To be noted: read-out: CLH.
The nature of series [6]: Half life in rat. The series is classed as ADME, organism-based. To be noted: in vivo.
Series [7] in a line: Oral bioavailability in dog. To be noted: in vivo. In kind it is ADME, organism-based, Canis lupus familiaris.
A short description of series [8]: Clearance in mouse. The settings on record: in vivo. The series is classed as ADME, organism-based.
Series [9] can be described thus: Intrinsic clearance in rat hepatocytes assessed per million of cells. The settings on record: read-out: CLH. In kind it is ADME, cell-based, Hepatocyte.
The nature of series [10]: Half life in dog. In kind it is ADME, organism-based, Canis lupus familiaris. The settings on record: in vivo.
A short description of series [11]: Intrinsic clearance in dog hepatocytes assessed per million of cells. In kind it is ADME, cell-based, Canis lupus familiaris, Hepatocyte. The settings on record: read-out: CLH.
Series [12] is described as follows: Half life in mouse. The series is classed as ADME, organism-based. To be noted: in vivo.

The structures appear in SMILES notation.

The term logD denotes lipophilicity at a set pH, counting ionised and neutral species. The low end stands for a more hydrophilic compound, the high end for a more lipophilic compound. As a reminder, the bioavailability is the share of a dose that reaches the circulation, judged against a reference dose that is usually intravenous. A word on the clearance: it is a measure of how efficiently the substance is removed, as volume per time. The low end stands for a low capacity for elimination, the high end for a high capacity for elimination. For orientation: half-life means the time needed for the level to fall by half in the phase considered. A high value points to slow loss.

Compound `CC(NC(=O)C1(N)CCN(c2ncnc3[nH]ccc23)CC1)c1ccc(Cl)cc1` (racemic) had a logD in the series “physchem” of 2.7. The same measure, in the same setting: the figure for `COc1ccc(C(C)NC(=O)C2(N)CCN(c3ncnc4[nH]ccc34)CC2)cc1OC` (racemic) is 1.8; for `NC1(C(=O)NC(CCCN2CCCC2)c2ccc(Cl)cc2)CCN(c2ncnc3[nH]ccc23)CC1` (racemic) it is 1.3.

In turn, `CS(=O)(=O)NCCC(NC(=O)C1(N)CCN(c2ncnc3[nH]ccc23)CC1)c1ccc(Cl)cc1` (racemic) returned a logD in the series “physchem” of 2.2. Take `NC(=O)C(NC(=O)C1(N)CCN(c2ncnc3[nH]ccc23)CC1)c1ccc(Cl)cc1` (racemic): the logD in the series “physchem” was 2.2.

The compound `NC1(C(=O)NC(c2ccccc2)c2ccc(Cl)cc2)CCN(c2ncnc3[nH]ccc23)CC1` (racemic) had a logD in “physchem” of 4.1.

`NC1(C(=O)NC(c2ccc(Cl)cc2)C2CC2)CCN(c2ncnc3[nH]ccc23)CC1` (racemic) gave a logD in the series “physchem” of 3.4. The same measure, in the same setting: the figure for `CN(C)CCCC(NC(=O)C1(N)CCN(c2ncnc3[nH]ccc23)CC1)c1ccc(Cl)cc1` (racemic) is 1.4; for `CCC(NC(=O)C1(N)CCN(c2ncnc3[nH]ccc23)CC1)c1ccc(Cl)cc1` (racemic) it is 3.5. In the case of `NC1(C(=O)NCc2ccc(Cl)cc2)CCN(c2ncnc3[nH]ccc23)CC1`, the bioavailability in series [1] is 56%; in [2], 88%; in [7] it was 70%. Further, the hepatocyte CLint in “in vitro” was found to be 15 µL/min/1e6 cells; in series [5] it was 10 µL/min/1e6 cells; in series [9], 19 µL/min/1e6 cells; in series [11] it was 6 µL/min/1e6 cells. The clearance in series [3] came to 48 mL/min/kg; in [8], 42 mL/min/kg. The Vd in [4] came to 0.6 L/kg. In addition, the values for the half-life in series [6], in series [10] and in series [12] were 138 min, 180 min and 48 min, respectively.

`NC1(C(=O)NC(CO)c2ccc(Cl)cc2)CCN(c2ncnc3[nH]ccc23)CC1` (racemic) came in with a logD in the series “physchem” of 2.4. On to `CC(NC(=O)C1(N)CCN(c2ncnc3[nH]ccc23)CC1)c1ccccn1` (racemic), for which, in “physchem”, the logD turned out to be 1.3. `NC1(C(=O)NC(CCCO)c2ccc(Cl)cc2)CCN(c2ncnc3[nH]ccc23)CC1` (racemic): in “physchem”, the logD was 2.8. Still for that read-out and setting: the figure for `CC(NC(=O)C1(N)CCN(c2ncnc3[nH]ccc23)CC1)c1ccc(S(C)(=O)=O)cc1` (racemic) is 1; for `NC1(C(=O)NC(CS(N)(=O)=O)c2ccc(Cl)cc2)CCN(c2ncnc3[nH]ccc23)CC1` (racemic) it is 2.2. `CN(C)C(=O)CC(NC(=O)C1(N)CCN(c2ncnc3[nH]ccc23)CC1)c1ccc(Cl)cc1` (racemic) came in with a logD in the series “physchem” of 2.4. In turn, `CS(=O)(=O)NCC(NC(=O)C1(N)CCN(c2ncnc3[nH]ccc23)CC1)c1ccc(Cl)cc1` (racemic) gave a log distribution coefficient (logD) in the series “physchem” of 2.1. With `CC(NC(=O)C1(N)CCN(c2ncnc3[nH]ccc23)CC1)c1ccc(F)cc1` (racemic), the logD in the series “physchem” amounted to 2.4. For `CC(NC(=O)C1(N)CCN(c2ncnc3[nH]ccc23)CC1)c1ccccc1` (racemic), the logD in the series “physchem” worked out at 2.2.

In the series “physchem”, `CC(=O)NCC(NC(=O)C1(N)CCN(c2ncnc3[nH]ccc23)CC1)c1ccc(Cl)cc1` (racemic) showed a logD of 2.4.

In the series “physchem”, `NC1(C(=O)N[C@@H](CCN2CCCCC2)c2ccc(Cl)cc2)CCN(c2ncnc3[nH]ccc23)CC1` (racemic) had a logD of 2.4. The same measure, in the same setting: the figure for `C[C@H](NC(=O)C1(N)CCN(c2ncnc3[nH]ccc23)CC1)c1ccc(Cl)cc1` is 2.7; for `COCCC(NC(=O)C1(N)CCN(c2ncnc3[nH]ccc23)CC1)c1ccc(Cl)cc1` (racemic) it is 3. As to `C[C@@H](NC(=O)C1(N)CCN(c2ncnc3[nH]ccc23)CC1)c1ccc(Cl)cc1`, the logD in “physchem” was determined as 3.3. `NC1(C(=O)NC(CCCN2CCOCC2)c2ccc(Cl)cc2)CCN(c2ncnc3[nH]ccc23)CC1` (racemic) displayed a logD in “physchem” of 2.7.
